Measured values reported in patent publication US9545400B2, “Analgesic composition including opioid analgesic and P7C3” (CHONNAM NATIONAL UNIVERSITY HOSPITAL, priority 2014, dated 2017).

Legend:
Sprague-Dawley rats [1] = assay: Formalin-induced pain test (flinching) after intrathecal administration; format: in vivo, rat; conditions: for ED50 (dose which decreases the formalin response of the control by 50%), Phase 1 / ED50 (dose which decreases the formalin response of the control by 50%), Phase 2: drug alone, intrathecal 10 min before formalin injection, rat; for ED50 (dose which decreases the formalin response of the control by 50%), Phase 1: Phase 1 (0 to 9 min); for ED50 (dose which decreases the formalin response of the control by 50%), Phase 2: Phase 2 (10 to 60 min); for Ratio of ED50 in Phase 1 to ED50 in Phase 2: formalin experiment; for Ratio of ED50 in Phase 1 to ED50 in Phase 2 / Flinching reactions, dose-response (percentage of control) / Number of flinches over time at the highest dose: intrathecal; for Flinching reactions, dose-response (percentage of control): Phase 1 and Phase 2, FIGS. 2A and 2B; for Number of flinches over time at the highest dose: FIGS. 1A and 1B
Protocol: (§1) After permission for all the procedures in the experimental protocol was obtained by The Institutional Animal Care and Use Committee of Chonnam National University, experiments were performed. Adult male Sprague-Dawley rats (250 to 300 g) were used as the experimental subject, four rats per group were housed and kept in a well-controlled vivarium, maintained at 22° C. for 12 hours, with an alternating light/dark cycle and were given food and water ad libitum. Rats were under sevoflurance anesthesia in order to be implanted with an intrathecal catheter, and placed in a stereotaxic apparatus A polyethylene catheter lower end portion was intrathecally inserted so as to be positioned within the lumbar extension portion through an incision in the cisternal membrane. Then, the catheter upper end portion was secured at the skull. After the catheter implantation, rats were again housed in individual cages. After the intrathecal catheter implantation, rats showing movement disorder were excluded in the experiment, and killed by administering an overdose of sevoflurane. Rats showing normal responses were again housed in individual cages in the vivarium, and given a recovery time of 5 days.
A formalin experiment was used as a pain evoking experimental tool. 50 μL of a 5% formalin solution was injected subcutaneously into the subcutaneous tissue of a hind paw of the rat. […] The number of flinches was counted for 1 min periods at 1 and 5 min and at 5 min intervals from 10 to 60 min after the injection. […] Therefore, the phase from 0 to 9 minutes after the injection of formalin was defined as Phase 1, and the phase from 10 to 60 minutes was defined as Phase 2. After the behavior study, rats were administered an overdose of sevoflurane, and then killed.
The effect of the experimental drug for the formalin injection was tested for 5 days after the intrathecal catheter implantation. After acclimatization for 15 to 20 min in a restraint cylinder (10×10×30 cm), the rats were allocated to receive one of the experimental drugs, and tested only once. The same volume of the vehicle (saline, 0.1 N NaOH or DMSO) was administered to a control. The total number of rats used in the nociceptive behavioral study was 139 with 6 to 8 rats per group. The investigators were blind as to the administration amount and type of experimental drug used in each rat.
Saline, 10, 30, and 100 μg of P7C3 (Tocris Cookson Ltd., Bristol, UK), and 1, 3, 10, and 30 μg of morphine sulfate (Sigma-Aldrich, St. Louis, Mo., USA) were intrathecally administered 10 minutes before formalin injection, and analgesic effects (flinching number analysis) were investigated according to the aforementioned pain experiment. The drug was intrathecally administered by using a manually gear operated syringe pump. All the drugs were administered in an amount of 10 μl, and an additional 10 μl of standard saline was administered in order to wash out the catheter.
The dose (ED50), which decreases the formalin response of the control for P7C3 and morphine by 50%, was determined at Phase 1 and the Phase 2, respectively.
And then, ED50 of the mixed drug was obtained. The experiment was performed individually in Phase 1 and Phase 2.
Data obtained in Examples 1 and 2 were expressed as means±SEM. The time response data are presented as the number of flinches. The dose-response data are presented as a percentage of the control. Percentage of the control=(total number of flinches in drug administration group in Phase 1[2]/number of flinches of control in Phase 1[2])×100

Sprague-Dawley rats [2] = assay: Evaluation of response of intrathecal administration of P7C3 (motor function and pinna/corneal reflexes); format: in vivo, rat; conditions: highest dose (100 μg) intrathecal, 5 rats
Protocol: as §1, with “After the intrathecal catheter implantation, rats showing movement disorder were excluded in the experiment, and killed by administering an overdose of sevoflurane. Rats showing normal responses were again housed in individual cages in the vivarium, and given a recovery time of 5 days.” left out
In order to detect undesirable behaviors induced by P7C3, the highest dose (100 μg) was intrathecally administered to 5 rats of each individual group. Motor function was assessed by the placing-stepping reflex and the righting reflex. […] The latter was evaluated by placing the rat horizontally with the rat's back on the table. […] The central nervous system was evaluated through pinna and corneal reflexes. […]

Row | SMILES | ED50 (dose which decreases the formalin response of the control by 50%), Phase 1 (Sprague-Dawley rats [1]) [µg] | ED50 (dose which decreases the formalin response of the control by 50%), Phase 2 (Sprague-Dawley rats [1]) [µg] | Ratio of ED50 in Phase 1 to ED50 in Phase 2 (Sprague-Dawley rats [1]) | Flinching reactions, dose-response (percentage of control) (Sprague-Dawley rats [1]) | Number of flinches over time at the highest dose (Sprague-Dawley rats [1]) | Normality of behavior: placing-stepping, righting, pinna and corneal reflexes (Sprague-Dawley rats [2])
1 | CN1CC[C@]23c4c5ccc(O)c4O[C@H]2[C@@H](O)C=C[C@H]3[C@H]1C5 [Morphine, (5α,6α)-7,8-didehydro-4,5-epoxy-17-methylmorphinan-3,6-diol, reference compound] | 8.8 | 3.9 | two times larger | suppressed flinching reactions dose-dependently | exhibited potential analgesic effects throughout the entire observation period | –
2 | OC(CNc1ccccc1)Cn1c2ccc(Br)cc2c2cc(Br)ccc21 (centres unmarked) [P7C3, 1-(3,6-dibromo-9H-carbazol-9-yl)-3-(phenylamino)propan-2-ol] | 31.8 | 31 | similar | suppressed flinching reactions dose-dependently | exhibited potential analgesic effects throughout the entire observation period | all normal (present)
